Measured values published in publication PMC7567792, “GPAHex-A synthetic biology platform for Type IV–V glycopeptide antibiotic production and discovery” (Nature Communications, 2020).
In brackets after ≈: the same amount, converted by molar mass.

Key:
B. subtilis 168 [1] = type: cell-based; details: Mueller-Hinton Broth
Description: (§1) Antibiotic susceptibility was tested using standard procedures in Mueller-Hinton Broth for most strains. Enterococcus strains were grown in Brain Heart Infusion media (BHI; BD Biosciences). Streptomyces MICs were determined in Bennett’s media (10 g potato starch, 2 g casamino acids, 1.8 g yeast extract, 0.2 g KCl, 0.2 g MgSO4·7H2O, 0.24 g NaNO3, 4 mg FeSO4·7H2O, 1 L ddH2O, pH 6.8).

E. coli BW25113 = type: cell-based; details: Mueller-Hinton Broth
Description: as §1

[2] = system: E. coli BW25113ΔbamBΔtolC; type: cell-based; details: Mueller-Hinton Broth
Description: as §1

E. faecium ATCC19434 = type: cell-based; details: Brain Heart Infusion media
Description: as §1

E. faecium ATCC29212 = type: cell-based; details: Brain Heart Infusion media
Description: as §1

[3] = system: E. faecium ATCC51299 (VREB); type: cell-based; details: Brain Heart Infusion media
Description: as §1

[4] = system: E. faecium ATCC70022 (VREA); type: cell-based; details: Brain Heart Infusion media
Description: as §1

S. aureus ATCC29213 = type: cell-based; details: Mueller-Hinton Broth
Description: as §1

S. venezuelae ATCC10712 = type: cell-based; details: Bennett's media
Description: as §1

MRSA USA300 = type: cell-based, S. aureus; details: Mueller-Hinton Broth
Description: as §1

[5] = system: Vancomycin intermediate MRSA Mu50; type: cell-based, S. aureus; details: Mueller-Hinton Broth
Description: as §1

hVISA MRSA Mu3 = type: cell-based, S. aureus; details: Mueller-Hinton Broth
Description: as §1

[6] = system: S. coelicolor M1154/pAMX4/pGP6738; assay: MIC, antibiotic susceptibility testing; type: cell-based; details: Bennett's media
Description: as §1

S. coelicolor M1154 = assay: MIC, antibiotic susceptibility testing; type: cell-based; details: Bennett's media
Description: as §1

[7] = system: panel of indicator strains; assay: MIC determination against a panel of indicator strains, comparison of Type V GPAs; type: cell-based
Description: as §1

B. subtilis 168 [8] = assay: Brightfield microscopy of cell morphology at sub-MIC; type: cell-based; details: B. subtilis 168 grown with sub-MIC (0.6× MIC, 3.2 µg/mL GP6738) to mid-log phase
B. subtilis 168 [9] = assay: Cell lysis assay / growth tracking (OD600); type: cell-based
Description: Early exponential phase B. subtilis 168 (OD600 ~0.25) grown in LB media was dispensed 100 µL per well into a round bottom 96 well plate. Antibiotics were supplemented to the appropriate concentration, and where appropriate lytic agents were added (50 µg/mL fosfomycin, 100 µg/mL ampicillin, 100 mM sodium azide). The plate was covered with a clear, breathable film and OD600 was monitored on a Tecan sunrise microplate reader at 37 °Cwith shaking.

mutanolysin = assay: Peptidoglycan autolysin digestion in vitro, mutanolysin; type: biochemical; details: mutanolysin 20 µg/mL, 1 mg/mL B. subtilis PG, 20 mM sodium acetate pH 6.5, 30 min preincubation, OD600, 37 °C, triplicate
Description: (§2) The muramidase mutanolysin was purchased from Sigma. The glucosaminidase domain from LytD was cloned from B. subtilis 168 into pET28 between NcoI and XhoI restriction sites for introduction of C-term 6× His. Construct was expressed from E. coli BL21(DE3) pLysS by inoculating 1 L of LB media 1:50 from an overnight culture, then growing at 37 °C until OD600 reached 0.6, at which time the cells were induced with 1 mM IPTG and grown for 18 h at 16 °C. Native LytD-6× His was purified by Ni-NTA affinity chromatography and cation exchange chromatography. Protein purity was >95% as assessed by SDS-PAGE analysis.
(§3) B. subtilis peptidoglycan for binding and digestion assays was prepared by harvesting the cells (OD600 0.6–0.7), boiled in 4% SDS, and washed and sonicated to break up sacculi, followed by α-amylase and DNase treatment, and digested with pronase overnight. The peptidoglycan was boiled in 2% SDS again, washed, and teichoic acids were hydrolysed with 1 M HCl. The peptidoglycan was washed with water to pH 6.0 and lyophilized to use. Peptidoglycan was digested under optimized conditions with either mutanolysin (20 µg/mL, 1 mg/mL PG, 20 mM sodium acetate, pH 6.5) or LytD (10 µg/mL, 1 mg/mL PG, 200 mM NaCl, 50 mM MES-NaOH, pH 5.5). […] The plate was covered with a clear, breathable film to prevent evaporation, and OD600 was tracked on a Tecan sunrise microplate reader shaking at 37 °C.

LytD = assay: Peptidoglycan autolysin digestion in vitro, LytD; type: biochemical, B. subtilis 168; details: LytD 10 µg/mL, 1 mg/mL B. subtilis PG, 200 mM NaCl, 50 mM MES-NaOH pH 5.5, 30 min preincubation, OD600, 37 °C, triplicate
Description: as §2, §3

[10] = Peptidoglycan binding assay; design: species or system B. subtilis; details: 0.1 mg/mL GP6738 in water with 20% DMSO, PG 25:1 to 200:1 w/w, 1–2 h at 37 °C, unbound compound by HPLC
Description: To assess peptidoglycan binding, GP6738 was diluted to 0.1 mg/mL in water with 20% (v/v) DMSO to aid GP6738 solubility. For each 100 μL binding assay, B. subtilis peptidoglycan was added to 0 mg/mL, 2.5 mg/mL, 5 mg/mL, 10 mg/mL or 20 mg/mL for 0, 25:1, 50:1, 100:1 and 200:1 w/w ratios, respectively. Mixtures were incubated for 1–2 h at 37 °C, then centrifuged for 10 min to thoroughly pellet insoluble material, and the supernatant was removed for analysis. Samples were prepared for HPLC analysis by the addition of NH4OH to 0.01% (v/v), and 50 µL was injected on the HPLC. Analysis was performed using a Thermo Hypersil GOLD aQ C18 4.6 × 150 mm column and the following gradient at 0.8 mL/min, 40 °C: t = 0–2 min 0% solvent B, t = 10–13 min 65% solvent B, t = 14 min 0% solvent B (solvent A: 0.01% v/v NH4OH in water [pH 9.6] and solvent B: ACN).

[11] = amide linkage changed to an ester; cited from earlier work
Excerpt: Glycopeptide antibiotics (GPAs), such as vancomycin and teicoplanin (Fig. 1a), are microbial natural products (NPs) that are essential for the control of infections caused by Gram-positive pathogens. Vancomycin and teicoplanin inhibit bacterial cell wall biosynthesis by binding to the D-Alanine-D-Alanine terminating dipeptide of growing peptidoglycan and its extracellular precursors. Like all antibiotics, GPAs are vulnerable to resistance. Vancomycin resistance occurs through reprogramming of cell wall biosynthesis, mediated by a vanRSHAX resistance cassette that replaces the D-Ala-D-Ala te ...

Bacillus subtilis 168 = assay: Antibacterial activity assay (bioassay) of fermentation extracts; type: cell-based; details: B. subtilis 168
Excerpt: Supplementary Fig. 4. Bioassay of corbomycin heterologous expression extracts against B. subtilis 168. Crude extracts from S. coelicolor M1154/pGP1529 strain do […]
from S. coelicolor M1154/pAMX4/pGP1529. […]
parental strain S. sp. WAC01529 are likely the result of uncharacterized compounds produced by this strain, as equivalent amounts of purified corbomycin as are present […]
Source data are provided as a Source Data file.
(1 picture or pasted object on this page, not shown here)

Compound	MIC (B. subtilis 168 [1])	MIC (E. coli BW25113)	MIC [2]	MIC (E. faecium ATCC19434)	MIC (E. faecium ATCC29212)	MIC [3]	MIC [4]	MIC (S. aureus ATCC29213)	MIC (S. venezuelae ATCC10712)	MIC (MRSA USA300)	MIC [5]	MIC (hVISA MRSA Mu3)	MIC [6]	MIC (S. coelicolor M1154)	further results
CC(C)C(NC(=O)C(NC(=O)C(N)c1cc(O)cc(O)c1)c1cc(O)cc(O)c1)C(=O)NC1Cc2c[nH]c3cc(ccc23)-c2cc3cc(c2O)Oc2ccc(cc2)CC(C(=O)NC(C(=O)O)c2cc(O)cc(O)c2)NC(=O)C(c2cc(O)cc(O)c2)NC(=O)C3NC(=O)C(c2cc(O)cc(O)c2)NC1=O (stereo not shown) [GP6738]	4 µg/mL (≈ 2.78 µM)	> 256 µg/mL	> 256 µg/mL	64 µg/mL (≈ 44.5 µM)	64 µg/mL (≈ 44.5 µM)	64 µg/mL (≈ 44.5 µM)	64 µg/mL (≈ 44.5 µM)	4 µg/mL (≈ 2.78 µM)	16 µg/mL (≈ 11.1 µM)	4 µg/mL (≈ 2.78 µM)	2 to 4 µg/mL	4 µg/mL (≈ 2.78 µM)	16 µg/mL (≈ 11.1 µM)	16 µg/mL (≈ 11.1 µM)	fold higher MIC of GP6738 compared to corbomycin [7]: 2–16 fold; cell morphology (B. subtilis 168 [8]): characteristic elongated cell morphology of autolysin inhibition; bacteriostatic or bacteriolytic effect, growth tracking (B. subtilis 168 [9]; B. subtilis 168, 10-fold MIC, OD600, 37 °C, n = 3): bacteriostatic phenotype; block of cell lysis induced by lytic agents (B. subtilis 168 [9]; B. subtilis 168, 10× MIC, 50 µg/mL fosfomycin, 100 µg/mL ampicillin or 100 mM sodium azide, OD600, n = 3): able to block cell lysis; block of peptidoglycan digestion by mutanolysin (mutanolysin): blocks cell wall digestion; block of peptidoglycan digestion by LytD (LytD): blocks cell wall digestion; binding to peptidoglycan [10]: binding to peptidoglycan
CN[C@H](CC(C)C)C(=O)N[C@H]1C(=O)N[C@@H](CC(N)=O)C(=O)N[C@H]2C(=O)N[C@H]3C(=O)N[C@H](C(=O)N[C@H](C(=O)O)c4cc(O)cc(O)c4-c4cc3ccc4O)[C@H](O)c3ccc(c(Cl)c3)Oc3cc2cc(c3O[C@@H]2O[C@H](CO)[C@@H](O)[C@H](O)[C@H]2O[C@H]2C[C@](C)(N)[C@H](O)[C@H](C)O2)Oc2ccc(cc2Cl)[C@H]1O [Vancomycin]	0.25 µg/mL (≈ 0.173 µM)	256 µg/mL (≈ 177 µM)	8 µg/mL (≈ 5.52 µM)	2 µg/mL (≈ 1.38 µM)	2 µg/mL (≈ 1.38 µM)	32 µg/mL (≈ 22.1 µM)	> 256 µg/mL	1 µg/mL (≈ 0.69 µM)	0.25 µg/mL (≈ 0.173 µM)	1 µg/mL (≈ 0.69 µM)	8 µg/mL (≈ 5.52 µM)	2 µg/mL (≈ 1.38 µM)	256 µg/mL (≈ 177 µM)	256 µg/mL (≈ 177 µM)	decrease of affinity of vancomycin on change of D-Ala-D-Ala to D-Ala-D-Lactate [11]: 1000 fold
Complestatin	0.5 µg/mL	> 256 µg/mL	64 µg/mL	64 µg/mL	32 µg/mL	32 µg/mL	64 µg/mL	2 µg/mL	2 µg/mL	2 µg/mL	0.5 µg/mL	0.5 µg/mL		4 µg/mL	
Corbomycin	1 µg/mL	> 256 µg/mL	32 µg/mL	4 µg/mL	4 µg/mL	4 µg/mL	4 µg/mL	1 µg/mL	2 µg/mL	1 µg/mL	1 µg/mL	1 µg/mL	4 µg/mL	4 µg/mL	growth inhibition / zones of inhibition (Bacillus subtilis 168): do not give zones
